Tests used:
[1] = tested on: NLRP3 inflammasome; conditions: previously characterised weak NLRP3 inhibitors; nonspecific; cited from earlier work
[2] = molecular target: T1, NLRP3 (Homo sapiens, UniProt Q96P20); test: THP-1 cells pyroptosis assay; type: cell-based; design: Seed THP-1 cells (25,000 cells/well) containing 1.0 μg/ml LPS; host or cells: THP-1; conditions: LPS 1.0 μg/ml, nigericin 5 μM, resazurin readout, 10 μM top dose (Example 2: top dose of 30 μM)
How it was run: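 THP-1 cells (25,000/well) primed with 1 μg/ml LPS in serum-free RPMI, treated with compound (8-point dilution, 10 μM top unless stated; 0.1% DMSO) 3 h at 37°C, then nigericin 5 μM 1 h. Viability read by resazurin (100 μM, 1-2 h) fluorescence; IC50 from 4-parameter fit.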

[3] = PK, oral administration; type: in vivo, male Sprague Dawley rats; conditions: male, Sprague Dawley, plasma, rat, 3 mg/kg
Description: Pharmacokinetic parameters were determined in male Sprague Dawley rats (Vital River Laboratory Animal Technology Co Ltd, Beijing, China, 6-9 weeks old). Animals were maintained under a 12 h light/dark cycle. Animals had free access to food and water, except that orally dosed animals were food deprived overnight prior to the study.
For intravenous administration, compounds were formulated as a solution (in DMSO:water [10:90] or in DMSO:PBS [10:90]) in 2 mL/kg dosing volume and administered via tail vein. For oral administration, compounds were formulated as a solution (in 0.5% methylcellulose in water) in […] dosing volume and administered orally.
Serial blood samples (about 200 μL) were taken from each animal at each of 8 time-points post dose ([…], 0.25, 0.5, 1, 2, 4, 8 and 24 h). Samples were held on ice for no longer than 30 minutes before centrifugation (5,696 rpm (3,000 g) for 15 minutes) for plasma generation. Plasma was frozen on dry ice prior to bioanalysis. PK parameters were generated from LC-MS/MS data using Phoenix WinNonlin 6.3 software.

[4] = PK, intravenous administration; type: in vivo; conditions: rat, plasma, male Sprague Dawley rats, dose about 1 mg/kg; for Vd: read-out: Vdss
How it was run: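 Male Sprague Dawley rats (6-9 weeks); IV dosing via tail vein as solution in DMSO:water or DMSO:PBS (10:90), oral dosing in 0.5% methylcellulose after overnight fasting. Plasma sampled at 8 time-points to 24 h; parameters derived from LC-MS/MS data.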

[5] = molecular target: T1, NLRP3; test: Human whole blood IL1β release assay; type: cell-based; conditions: LPS 1 μg/ml, nigericin 10 μM, IL-1β AlphaLisa, 10 μM top dose (Example 2: top dose of 30 μM), read-out: HWB IC50
How it was run: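 Healthy-donor heparinised human whole blood with 1 μg/ml LPS, compound (8-point half-log dilution, 10 μM top dose unless stated; 0.1% DMSO vehicle) for 3 h at 37 °C, then nigericin 10 μM final for 1 h. Supernatant IL-1β by AlphaLISA; IC50 from 4-parameter variable-slope fit.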

T1 sequence (Q96P20 whole entry): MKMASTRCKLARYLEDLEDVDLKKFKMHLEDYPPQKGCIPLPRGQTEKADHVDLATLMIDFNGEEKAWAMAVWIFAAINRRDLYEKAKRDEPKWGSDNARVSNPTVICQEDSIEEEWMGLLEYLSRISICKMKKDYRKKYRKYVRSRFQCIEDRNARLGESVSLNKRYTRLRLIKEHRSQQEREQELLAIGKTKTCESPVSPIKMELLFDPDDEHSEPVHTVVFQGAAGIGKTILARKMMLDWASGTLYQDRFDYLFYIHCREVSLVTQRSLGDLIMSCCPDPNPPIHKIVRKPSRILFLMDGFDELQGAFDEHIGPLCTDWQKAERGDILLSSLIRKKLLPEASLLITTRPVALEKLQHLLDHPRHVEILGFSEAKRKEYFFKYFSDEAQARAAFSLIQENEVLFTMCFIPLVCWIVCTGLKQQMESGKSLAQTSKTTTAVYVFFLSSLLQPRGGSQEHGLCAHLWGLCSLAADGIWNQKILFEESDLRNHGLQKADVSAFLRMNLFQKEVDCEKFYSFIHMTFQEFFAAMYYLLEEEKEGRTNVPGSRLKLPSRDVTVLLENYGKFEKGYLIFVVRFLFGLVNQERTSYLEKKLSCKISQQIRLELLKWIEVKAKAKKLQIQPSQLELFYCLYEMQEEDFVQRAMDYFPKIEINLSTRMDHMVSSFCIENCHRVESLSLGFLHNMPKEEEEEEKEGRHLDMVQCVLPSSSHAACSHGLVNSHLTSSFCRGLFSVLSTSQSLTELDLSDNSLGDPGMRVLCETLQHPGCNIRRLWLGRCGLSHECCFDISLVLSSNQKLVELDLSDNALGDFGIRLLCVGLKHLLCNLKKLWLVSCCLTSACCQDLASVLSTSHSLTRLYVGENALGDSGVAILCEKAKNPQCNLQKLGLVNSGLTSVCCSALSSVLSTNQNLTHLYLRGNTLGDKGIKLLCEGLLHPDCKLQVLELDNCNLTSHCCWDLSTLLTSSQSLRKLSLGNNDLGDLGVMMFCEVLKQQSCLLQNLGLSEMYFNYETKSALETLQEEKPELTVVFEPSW

Row | IC50 [2] | AUC [3] | CL/F [3] | Cmax [3] | Tmax [3] | bioavailability [3] | half-life [3] | AUC [4] | clearance [4] | half-life [4] | Vd [4] | IC50 [5] | SMILES | NLRP3 inhibition [1]
1 | – | – | – | – | – | – | – | – | – | – | – | – | O=[N+]([O-])C=Cc1ccc2c(c1)OCO2 [3,4-methylenedioxy-β-nitrostyrene] | limited potency
2 | ≤ 1000 nM | 878 ng·h/mL | 61.5 mL/min/kg | 594 ng/mL | 0.25 h | 48.6% | 1.2 h | 602 ng·h/mL | 28 mL/min/kg | 0.7 h | 0.66 L/kg | – | CN(C)Cc1ccc(S(=O)(=O)c2nnc(Nc3c4c(cc5c3CCC5)CCC4)[nH]2)cc1 [Example 43, 5-((4-((dimethylamino)methyl)phenyl)sulfonyl)-N-(1,2,3,5,6,7-hexahydro-s-indacen-4-yl)-4H-1,2,4-triazol-3-amine] | –
3 | ≤ 500 nM | – | – | – | – | – | – | 280 ng·h/mL | 59.6 mL/min/kg | 1.89 h | 5.78 L/kg | ≤ 500 nM | CC(C)N1CCC2(C1)CN(S(=O)(=O)c1nnc(Nc3c4c(cc5c3CCC5)CCC4)[nH]1)C2 [Example 264, N-(1,2,3,5,6,7-hexahydro-s-indacen-4-yl)-5-((6-isopropyl-2,6-diazaspiro[3.4]octan-2-yl)sulfonyl)-4H-1,2,4-triazol-3-amine] | –
4 | ≤ 500 nM | – | – | – | – | – | – | 175 ng·h/mL | 95.3 mL/min/kg | 2.52 h | 12.1 L/kg | ≤ 1000 nM | O=S(=O)(c1nnc(Nc2c3c(cc4c2CCC4)CCC3)[nH]1)N1CCC2(CCCN2)CC1 [Example 268, 5-((1,8-diazaspiro[4.5]decan-8-yl)sulfonyl)-N-(1,2,3,5,6,7-hexahydro-s-indacen-4-yl)-4H-1,2,4-triazol-3-amine] | –
5 | ≤ 500 nM | – | – | – | – | – | – | 236 ng·h/mL | 71 mL/min/kg | 2.53 h | 9.16 L/kg | ≤ 500 nM | CN1CCC12CCN(S(=O)(=O)c1nnc(Nc3c4c(cc5c3CCC5)CCC4)[nH]1)CC2 [Example 270, N-(1,2,3,5,6,7-hexahydro-s-indacen-4-yl)-5-((1-methyl-1,7-diazaspiro[3.5]nonan-7-yl)sulfonyl)-4H-1,2,4-triazol-3-amine] | –
6 | ≤ 500 nM | – | – | – | – | – | – | 221 ng·h/mL | 75 mL/min/kg | 3.53 h | 14.9 L/kg | ≤ 1000 nM | CN(C)C1CCCN(S(=O)(=O)c2nnc(Nc3c4c(cc5c3CCC5)CCC4)[nH]2)CC1 (stereo not shown) [Example 271, 1-((5-((1,2,3,5,6,7-hexahydro-s-indacen-4-yl)amino)-4H-1,2,4-triazol-3-yl)sulfonyl)-N,N-dimethylazepan-4-amine] | –
7 | ≤ 500 nM | – | – | – | – | – | – | 271 ng·h/mL | 61.6 mL/min/kg | 1.64 h | 6.2 L/kg | ≤ 500 nM | CN1CCC2(C1)CN(S(=O)(=O)c1nnc(Nc3c4c(cc5c3CCC5)CCC4)[nH]1)C2 [Example 274, N-(1,2,3,5,6,7-hexahydro-s-indacen-4-yl)-5-((6-methyl-2,6-diazaspiro[3.4]octan-2-yl)sulfonyl)-4H-1,2,4-triazol-3-amine] | –
8 | ≤ 500 nM | – | – | – | – | – | – | 239 ng·h/mL | 69.7 mL/min/kg | 1.94 h | 7.51 L/kg | ≤ 500 nM | CN1CCC2(CCN(S(=O)(=O)c3nnc(Nc4c5c(cc6c4CCC6)CCC5)[nH]3)CC2)C1 [Example 276, N-(1,2,3,5,6,7-hexahydro-s-indacen-4-yl)-5-((2-methyl-2,8-diazaspiro[4.5]decan-8-yl)sulfonyl)-4H-1,2,4-triazol-3-amine] | –
9 | ≤ 500 nM | – | – | – | – | – | – | 278 ng·h/mL | 60 mL/min/kg | 1.8 h | 5.9 L/kg | ≤ 500 nM | CN1CCCC12CCN(S(=O)(=O)c1nnc(Nc3c4c(cc5c3CCC5)CCC4)[nH]1)CC2 [Example 278, N-(1,2,3,5,6,7-hexahydro-s-indacen-4-yl)-5-((1-methyl-1,8-diazaspiro[4.5]decan-8-yl)sulfonyl)-4H-1,2,4-triazol-3-amine] | –
10 | ≤ 500 nM | – | – | – | – | – | – | 195 ng·h/mL | 103 mL/min/kg | 1.33 h | 5.21 L/kg | ≤ 500 nM | COc1cc(-c2cc(F)c3c(c2Nc2nnc(S(=O)(=O)N4CC5(CCN(C)C5)C4)[nH]2)CCC3)ccn1 [Example 299, N-(7-fluoro-5-(2-methoxypyridin-4-yl)-2,3-dihydro-1H-inden-4-yl)-5-((6-methyl-2,6-diazaspiro[3.4]octan-2-yl)sulfonyl)-4H-1,2,4-triazol-3-amine] | –
11 | ≤ 500 nM | – | – | – | – | – | – | 235 ng·h/mL | 70.8 mL/min/kg | 2.65 h | 10.6 L/kg | ≤ 5000 nM | CN(C)C1CCN(S(=O)(=O)c2nnc(Nc3c4c(c(Cl)c5c3CCC5)CCC4)[nH]2)CC1 [Example 300, 1-((5-((8-chloro-1,2,3,5,6,7-hexahydro-s-indacen-4-yl)amino)-1H-1,2,4-triazol-3-yl)sulfonyl)-N,N-dimethylpiperidin-4-amine] | –
12 | ≤ 1000 nM | – | – | – | – | – | – | 200 ng·h/mL | 80.7 mL/min/kg | 2.45 h | 11.5 L/kg | ≤ 5000 nM | CC(C)c1cc(F)cc(C(C)C)c1Nc1nnc(S(=O)(=O)N2CCC(N(C)C)CC2)[nH]1 [Example 303, 1-((5-((4-fluoro-2,6-diisopropylphenyl)amino)-1H-1,2,4-triazol-3-yl)sulfonyl)-N,N-dimethylpiperidin-4-amine] | –
13 | ≤ 500 nM | – | – | – | – | – | – | 1240 ng·h/mL | 13.5 mL/min/kg | 0.653 h | 0.518 L/kg | ≤ 10000 nM | CC(C)(O)Cn1ccc(S(=O)(=O)c2nnc(Nc3c4c(cc5c3CCC5)CCC4)[nH]2)n1 [Example 328, 1-(3-((5-((1,2,3,5,6,7-hexahydro-s-indacen-4-yl)amino)-4H-1,2,4-triazol-3-yl)sulfonyl)-1H-pyrazol-1-yl)-2-methylpropan-2-ol] | –
14 | – | – | – | – | – | – | – | – | – | – | – | – | C[S+](C)[O-] [dimethyl sulfoxide] | limited potency

Source: patent US20210261512A1, “NOVEL COMPOUNDS” (INFLAZOME LIMITED, priority 2018, published 2021)
